Experiment: Sensory panel screening of natural coolants versus menthol in sugar solution (Example 1)
Format: in vivo, human
Conditions: 100 ppm in 5% sugar solution, 10 mL held 10 s, panel N=6; for Cooling Relative to 100 ppm Menthol: 9-point scale, menthol fixed as 5.0
Procedure: 100 ppm of naturally sourced menthyl lactate, menthyl succinate, and isopulegol were screened in 5% sugar solution for cooling and bitterness properties relative to 100 ppm menthol in 5% sucrose solution.
10 mL of each sample was orally evaluated by a panel (N=6) for 10 seconds, then expectorated. Cooling strength, flavor strength, and bitterness or off-taste was evaluated on a 9-point scale in comparison to 100 ppm menthol evaluated as a control, with 0 being the lowest and 9 being the highest measure on the scale. Subjects evaluated the coolant attributes at T0 (immediately after expectorating), 1, 2, 5 and 10 minute time points post expectoration.
Prior to the test, each subject calibrated their cooling and bitterness scale by performing the same evaluation on 10 mL of 100 ppm of L-menthol (prepared the same way as the natural coolants). The menthol solution was held in the mouth for 10 seconds as a calibration sample and the cooling strength and bitterness were fixed as 5.0 at the initial T0 time point.
Panelists were asked to rate the cooling and bitterness intensity of the compounds in solution, relative to the solution of 100 ppm of menthol, when tested in comparative screenings. The ratings are summarized in Table 1, showing the cooling and bitterness of the coolants compared to menthol.

## CC1CCC(C(C)C)C(O)C1 (centres unmarked) [Menthol (Control), menthol, reference compound]
  Bitterness Relative to 100 ppm Menthol: 1.0
  Cooling Relative to 100 ppm Menthol: 1.0

## C=C(C)C1CCC(C)CC1O (centres unmarked) [Natural Isopulegol, isopulegol]
  Bitterness Relative to 100 ppm Menthol: 0.8
  Cooling Relative to 100 ppm Menthol: 0.7

## CC1CCC(C(C)C)C(OC(=O)C(C)O)C1 (centres unmarked) [Natural Menthyl Lactate, menthyl lactate]
  Bitterness Relative to 100 ppm Menthol: 1.7
  Cooling Relative to 100 ppm Menthol: 1.1

## CC1CCC(C(C)C)C(OC(=O)CCC(=O)O)C1 (centres unmarked) [Natural Menthyl Succinate, mono-menthyl succinate]
  Bitterness Relative to 100 ppm Menthol: 0.8
  Cooling Relative to 100 ppm Menthol: 0.6
